Results as given in patent publication US4334066A (priority 1981, dated 1982).
≈ marks a conversion by molar mass, not a printed value.

Experiments:
Type in all cases: cell-based
[1] = system: Rice blast disease (Pyricularia oxyzae); test: microbe, parasite or virus in culture; settings: 48 h, read-out: Minimum Inhibitory Concentration
[2] = system: Gammy stem blight of melon (Mycosphaerella melonis); settings: 48 h, test microorganism D, PDA medium, complete inhibition of mycelial growth, read 2 days later, read-out: Minimum Inhibitory Concentration
From the text: (§1) The test microorganisms employed are described below.
D . . . Gammy stem blight of melon

[3] = system: Bacterial blight of rice (Xanthomonas oryzae); test: microbe, parasite or virus in culture; settings: 48 h, read-out: Minimum Inhibitory Concentration
[4] = system: Stem rot of eggplant (Sclerotinia Sclerotiorum); settings: 48 h, test microorganism C, PDA medium, complete inhibition of mycelial growth, read 2 days later, read-out: Minimum Inhibitory Concentration
From the text: as §1
C . . . Stem rot of eggplant
(Sclerotinia Sclerotiorum)

[5] = system: Early blight of tomato (Alternaria solaui); settings: 48 h, test microorganism E, PDA medium, complete inhibition of mycelial growth, read 2 days later, read-out: Minimum Inhibitory Concentration
From the text: as §1
E . . . Early blight of tomato

SMILES	MIC [1]	MIC [2]	MIC [3]	MIC [4]	MIC [5]
CCC1OC(OC)C=C(CN2CCNCC2)C1=O (stereo not drawn) [Compound 1, 6-ethyl-2-methoxy-4-piperazinomethyl-5-oxo-5,6-dihydro-2H-pyran]	100 µg/mL (≈ 393 µM)	100 µg/mL (≈ 393 µM)	12.5 µg/mL (≈ 49.1 µM)	100 µg/mL (≈ 393 µM)	200 µg/mL (≈ 786 µM)
CCOC1C=C(CN2CCOCC2)C(=O)C(C(C)C)O1 (stereo not drawn) [Compound 2, 6-isopropyl-2-ethoxy-4-morpholinomethyl-5-oxo-5,6-dihydro-2H-pyran]	100 µg/mL (≈ 353 µM)	100 µg/mL (≈ 353 µM)		100 µg/mL (≈ 353 µM)	200 µg/mL (≈ 706 µM)
